Experimental data: patent EP4755886A1 (Chengdu Chipscreen Pharmaceutical Ltd., priority 2023, dated 2025)
Like-named read-outs stand apart in the source and are kept apart here.

What was measured:
[1] = system: wild-type HCT-116 cells; test: Cell proliferation (MTS), wild-type HCT-116; type: cell-based; details: Homo sapiens, 240 h; wild-type HCT-116, 10 days with compound, MTS reading; read-out: IC50 HCT116 WT
Outline: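 Wild-type HCT-116 cells were seeded at 100 cells/well in McCoy's 5A/10% FBS. From day 1 they were treated with compound in 3-fold dilutions (initial 20 µM, 8 points) for 10 days at 37° C. Proliferation was read by MTS on day 11, and IC50 was obtained from a four-parameter logistic fit.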

[2] = Human liver microsome stability; type: in vitro ADME; details: pH 7.4; human liver microsomes 0.5 mg/mL, compound 1 µM, NADPH 1 mM, 37 °C
Protocol: (§1) Experimental materials: human liver microsomes (purchased from BIOIVT);
(§2) PBS: 0.1 M KH2PO4 and K2HPO4 buffers, pH 7.4.
MgCl2: a certain amount of MgCl2 was weighed out and prepared into a 16 mM MgCl2 solution with PBS.
NADPH (Chinese name: reduced nicotinamide adenine dinucleotide phosphate, purchased from Sigma, Cat. No.: 481973-500 mg): a certain amount of NADPH was weighed out and a 4 mM solution of NADPH was prepared with a 16 mM MgCl2 solution, and the final incubation concentration was 1 mM.
Compounds: 4 µM solutions of the test compounds and positive compounds were prepared with PBS, and the final incubation concentration was 1 µM.
Liver microsomes (purchased from BIOIVT, Cat. No.: X008070): the liver microsomes were diluted to […] with PBS, and the final incubation concentration was 0.5 mg/mL.
The prepared test compound or positive compound was added to a test tube, and then the prepared NADPH was added. The mixture was mixed well. The mixture was pre-incubated in a thermostat incubator at 220 rpm at 37 °C for 5 min, and the prepared liver microsomes were added to start the reaction. All steps were performed in replicate wells. At 0 min, 15 min, 30 min, 45 min, and 60 min, a certain volume of glacial acetonitrile solution containing an internal standard was added to the corresponding tube to precipitate the protein. The mixture was vortexed for 5 min with shaking, and then centrifuged at 4000 rpm for 10 min. […] The samples were analyzed by LC-MS/MS.
The concentrations (peak area ratios) of the example compounds were determined by LC-MS/MS. Rate constants were obtained by plotting "Ln (residual amount of compound %)" versus "incubation time" in Excel, thereby calculating the half-lives and intrinsic clearances of the drugs and providing a basis for the prediction of the in-vivo clearance.
[formula] CLH = CLint × fu × Qh /(CLint×fu+Qh) [formula]
Stability in human liver microsomes

[3] = PK experiment in mice; details: female, BALB/c, mouse, plasma, po, 10 mg/kg
[4] = system: MTAP^-/- HCT-116 cells; test: Cell proliferation (MTS), MTAP-/- HCT-116; type: cell-based, human; details: for Selectivity: HCT116 WT IC50 relative to HCT116 MTAP-/- IC50; for IC50: Homo sapiens, 240 h, MTAP-/- HCT-116, 10 days with compound, MTS reading, read-out: IC50 HCT116 MTAP-/-
Outline: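 MTAP-/- (CRISPR/Cas9 biallelic knockout) or wild-type HCT-116 cells seeded at 100 cells/well, treated next day with 8-point 3-fold dilutions (top 20 µM) for 10 days at 37 °C, 5% CO2. Viability read by MTS; IC50 from four-parameter logistic fit of inhibition rate vs log concentration.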

[5] = PK experiment in rats; type: in vivo; details: rat; SD male rats, PO 10 mg/kg, vehicle 0.5% MC/0.2% Tween 80, plasma
Protocol: The samples were analyzed by LC-MS/MS. […] Table 6. Pharmacokinetic parameters for rats

[6] = target: T1, CYP450 enzyme 3A4 (Homo sapiens, UniProt P08684); test: CYP inhibition test in human liver microsomes; type: in vitro ADME; details: human liver microsomes 0.1 mg/mL
T1 construct: Liver microsomes (purchased from BIOIVT, Cat. No.: X008070); tissue BIOIVT X008070; host or cells: human liver microsomes
Protocol: as §1, §2
MgCl2: a certain amount of MgCl2 was weighed out and prepared into a 20 mM MgCl2 solution with PBS.
NADPH (Chinese name: reduced nicotinamide adenine dinucleotide phosphate, purchased from Sigma, Cat. No.: 481973-500 mg): a certain amount of NADPH was weighed out and a 5 mM solution of NADPH was prepared with a 20 mM MgCl2 solution, and the final incubation concentration was 1 mM.
Compounds: 3 mM, 1 mM, 0.3 mM, 0.1 mM, 0.03 mM, 0.01 mM, and 0 mM solutions of the test compounds were prepared with a DMSO-methanol (v:v = 1:9) solution, and the final incubation concentrations were 30 µM, 10 µM, 3 µM, 1 µM, 0.3 µM, 0.1 µM, and 0 µM. 30 µM, 10 µM, 3 µM, 1 µM, 0.3 µM, and 0 µM solutions of the positive compound (ketoconazole) were prepared with a DMSO-methanol (v:v = 1:9) solution, and the final incubation concentrations were 0.3 µM, 0.1 µM, 0.03 µM, 0.01 µM, 0.003 µM, and 0 µM.
Substrate working solutions: 200 µM and 15 µM solutions of substrate working solutions (testosterone and midazolam) were prepared with PBS, separately, and the final incubation concentrations were 40 µM and 3 µM.
Liver microsomes (purchased from BIOIVT, Cat. No.: X008070): the liver microsomes were diluted to […] with PBS, and the final incubation concentration was 0.1 mg/mL.
The prepared test compounds or positive compounds were added to a 96-well plate, and then the prepared human liver microsome working solution and substrate working solution were added. The mixture was mixed well. The mixture was pre-incubated in a thermostat incubator at 37 °C for 5 min, and then the prepared NADPH was added to start the reaction. The mixture was incubated for 5 min or 10 min. After the incubation was completed, a pre-cooled acetonitrile solution containing an internal standard was added to terminate the reaction. After protein precipitation, the mixture was vortexed for 5 min with shaking and then centrifuged at 4000 rpm for 10 min. The supernatant was collected and added to the 96-well plate. The content (peak concentration ratio) of the metabolites of the substrate was determined by an LC-MS/MS method. The residual activity and the half maximal inhibitory concentration (IC50) of the enzyme were calculated based on the detected content.
Percentage of remaining enzyme activity: The activity of each subtype of CYP450 enzyme was expressed as the amount of metabolite produced, and the percentage of remaining enzyme activity was calculated as follows: [formula]
The concentrations of the test substances and the corresponding residual activity percentages were fitted using a nonlinear model of Excel software, and the concentration of the test substances at which 50% inhibition of metabolite production was achieved was the IC50 value.

[7] = in vivo; details: mouse, po, 10 mg/kg

T1 sequence (P08684 whole entry): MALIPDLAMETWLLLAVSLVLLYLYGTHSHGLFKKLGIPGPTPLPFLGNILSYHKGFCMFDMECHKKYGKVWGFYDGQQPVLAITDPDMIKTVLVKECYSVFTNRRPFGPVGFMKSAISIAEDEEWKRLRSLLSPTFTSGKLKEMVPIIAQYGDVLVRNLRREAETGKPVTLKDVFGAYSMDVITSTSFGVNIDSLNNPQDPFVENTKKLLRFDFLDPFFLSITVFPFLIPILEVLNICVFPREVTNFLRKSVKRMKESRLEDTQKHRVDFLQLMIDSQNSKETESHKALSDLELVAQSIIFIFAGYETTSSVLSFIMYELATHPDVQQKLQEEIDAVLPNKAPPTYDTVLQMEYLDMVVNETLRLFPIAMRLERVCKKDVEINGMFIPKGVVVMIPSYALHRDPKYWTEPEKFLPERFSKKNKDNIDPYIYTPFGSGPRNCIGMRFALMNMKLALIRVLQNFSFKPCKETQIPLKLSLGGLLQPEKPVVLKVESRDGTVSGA

Row | SMILES | IC50 [1] | half-life at 1 µM [2] | AUC(0-t) [3] | Cmax [3] | IC50 [4] | AUC(0-t) [5] | Cmax [5] | IC50 ([6]; substrate midazolam 3 µM, read-out: IC50 3A4-Midazolam) | IC50 ([6]; substrate testosterone 40 µM, read-out: IC50 3A4-Testosterone) | AUC(0-t) [7] | Cmax [7] | Selectivity [4]
1 | CN(C(=O)c1cc2c3c(c(N)nc2cc1F)COC3)[C@@H]1COc2cc(C#Cc3cnn(C4CC4)c3)ccc21 [Compound 16A, (S)-4-amino-N-(6-((1-cyclopropyl-1H-pyrazol-4-yl)ethynyl)-2,3-dihydrobenzofuran-3-yl)-7-fluoro-N-methyl-1,3-dihydrofuro[3,4-c]quinoline-8-carboxamide] | 1.17 µM |  | 23300 ± 5520 ng·h/mL | 1600 ± 352 ng/mL | 0.0139 µM | 13700 ± 2780 ng·h/mL | 1280 ± 270 ng/mL |  |  |  |  | 84
2 | CN(C(=O)c1cc2c3c(c(N)nc2cc1Cl)COC3)[C@@H]1COc2cc(C#Cc3cnn(C)c3)ccc21 [Compound 40A, (S)-4-amino-7-chloro-N-methyl-N-(6-((1-methyl-1H-pyrazol-4-yl)ethynyl)-2,3-dihydrobenzofuran-3-yl)-1,3-dihydrofuro[3,4-c]quinoline-8-carboxamide] | 0.483 µM | 62.9 min | 10100 ± 3500 ng·h/mL | 793 ± 28 ng/mL | 0.0046 µM |  |  | > 30 µM | > 30 µM |  |  | 105
3 | [2H]C([2H])([2H])n1cc(C#Cc2ccc3c(c2)OC[C@H]3N(C)C(=O)c2cc3c(cc2F)nc(N)c2cnn(C)c23)cn1 [Compound 82A, (S)-4-amino-7-fluoro-N,1-dimethyl-N-(6-((1-(methyl-D3)-1H-pyrazol-4-yl)ethynyl)-2,3-dihydrobenzofuran-3-yl)-1H-pyrazolo[4,3-c]quinoline-8-carboxamide] | 0.196 µM |  |  |  | 0.0026 µM |  |  |  |  | 14100 ± 4740 ng·h/mL | 1430 ± 195 ng/mL | 75
4 | C#Cc1ccc2c(c1)OCC2N(C)C(=O)c1cc2c(cc1F)nc(N)c1cnn(C)c12 (stereo not shown) [Reference Example 1, reference compound] |  | 16.6 min |  |  |  |  |  |  |  |  |  | 
5 | C#Cc1ccc2c(c1)OCC2N(C)C(=O)c1ccc2nc(N)c3cnn(C)c3c2c1 (stereo not shown) [Reference Example 2] |  | 33.6 min |  |  |  | 784 ± 595 ng·h/mL | 131 ± 17 ng/mL |  |  |  |  | 
6 | C#Cc1ccc2c(c1)OC[C@H]2N(C)C(=O)c1cc2c3c(c(N)nc2cc1Cl)COC3 [Reference Example 5, reference compound] |  | 25.6 min | 9080 ± 2790 ng·h/mL | 1400 ± 165 ng/mL |  | 2940 ± 438 ng·h/mL | 549 ± 139 ng/mL |  |  |  |  | 

Second part, led by results:

Row | IC50 [1] | half-life at 1 µM [2] | AUC(0-t) [3] | Cmax [3] | IC50 [4] | AUC(0-t) [5] | Cmax [5] | IC50 ([6]; substrate midazolam 3 µM, read-out: IC50 3A4-Midazolam) | IC50 ([6]; substrate testosterone 40 µM, read-out: IC50 3A4-Testosterone) | AUC(0-t) [7] | Cmax [7] | SMILES | Selectivity [4]
7 | 1.32 µM | 169 min | 9150 ± 2240 ng·h/mL | 634 ± 71 ng/mL | 0.008 µM |  |  |  |  |  |  | CN(C(=O)c1ccc2nc(N)c3cnn(C)c3c2c1)C1COc2cc(C#Cc3cnn(C4CC4)c3)ccc21 (stereo not shown) [Compound 4, 4-amino-N-(6-((1-cyclopropyl-1H-pyrazol-4-yl)ethynyl)-2,3-dihydrobenzofuran-3-yl)-N,1-dimethyl-1H-pyrazolo[4,3-c]quinoline-8-carboxamide] | 165
8 | 1.08 µM |  |  |  | 0.0087 µM |  |  |  |  | 15300 ± 2940 ng·h/mL | 1480 ± 187 ng/mL | [2H]C([2H])([2H])N(C(=O)c1cc2c3c(c(N)nc2cc1Cl)COC3)[C@@H]1COc2cc(C#Cc3cnn(C4CC4)c3)ccc21 [Compound 86A, (S)-4-amino-7-chloro-N-(6-((1-cyclopropyl-1H-pyrazol-4-yl)ethynyl)-2,3-dihydrobenzofuran-3-yl)-N-(methyl-D3)-1,3-dihydrofuro[3,4-c]quinoline-8-carboxamide] | 124
9 | 1.39 µM | 47.2 min |  |  | 0.0071 µM |  |  |  |  |  |  | CN(C(=O)c1cc2c3c(c(N)nc2cc1Cl)COC3)[C@@H]1COc2cc(C#Cc3cnn4c3CCCC4)ccc21 [Compound 91A, (S)-4-amino-7-chloro-N-methyl-N-(6-((4,5,6,7-tetrahydropyrazolo[1,5-a]pyridin-3-yl)ethynyl)-2,3-dihydrobenzofuran-3-yl)-1,3-dihydrofuro[3,4-c]quinoline-8-car boxamide] | 195
10 | 2.01 µM | 28.9 min | 12600 ± 1920 ng·h/mL | 1920 ± 76 ng/mL | 0.0974 µM | 853 ± 79 ng·h/mL | 477 ± 110 ng/mL |  |  |  |  | Nc1nc2cnc(C(=O)N3CCOC[C@@H]3c3ccc(C(F)(F)F)cc3)cc2c2c1COC2 [Reference Example 7, reference compound] | 21
